{"source": "patent US9067894B1", "about": "“Compound, composition, and method of activating GIRK potassium channel and use of same for treating conditions of interest” (Vanderbilt University, priority 2013, dated 2015)", "key": {"[1]": {"target": "T1, Adenosine A1 (Homo sapiens, UniProt P30542)", "T1 construct": "Ricerca (contract assay)", "T1 sequence (P30542 whole entry)": "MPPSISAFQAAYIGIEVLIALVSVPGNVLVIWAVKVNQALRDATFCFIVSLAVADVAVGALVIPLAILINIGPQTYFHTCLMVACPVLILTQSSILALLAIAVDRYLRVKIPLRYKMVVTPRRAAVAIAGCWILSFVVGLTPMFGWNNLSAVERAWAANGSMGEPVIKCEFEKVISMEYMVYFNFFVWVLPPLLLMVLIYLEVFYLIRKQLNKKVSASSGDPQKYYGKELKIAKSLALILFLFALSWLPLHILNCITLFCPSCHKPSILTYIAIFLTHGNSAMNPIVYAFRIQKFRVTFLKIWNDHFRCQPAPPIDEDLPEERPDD", "assay": "Radioligand displacement (Ricerca)", "assay_type": "binding"}, "[2]": {"target": "T2, Bradykinin B2 (Homo sapiens, UniProt P30411)", "T2 construct": "Ricerca", "T2 sequence (P30411 whole entry)": "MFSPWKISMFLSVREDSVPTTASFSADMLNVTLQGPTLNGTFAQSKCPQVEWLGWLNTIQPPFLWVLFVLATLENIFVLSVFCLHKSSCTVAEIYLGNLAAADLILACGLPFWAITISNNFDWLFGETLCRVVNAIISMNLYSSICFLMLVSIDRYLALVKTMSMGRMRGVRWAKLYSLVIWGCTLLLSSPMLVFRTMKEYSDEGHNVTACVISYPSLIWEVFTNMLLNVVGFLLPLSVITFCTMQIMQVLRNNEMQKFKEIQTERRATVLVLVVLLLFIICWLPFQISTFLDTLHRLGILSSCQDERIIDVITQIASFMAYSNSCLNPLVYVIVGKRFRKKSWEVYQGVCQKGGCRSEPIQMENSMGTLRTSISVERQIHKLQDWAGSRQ", "assay": "Radioligand displacement (Ricerca)", "assay_type": "binding"}, "[3]": {"target": "T3, Dopamine D1 (Homo sapiens, UniProt P21728)", "T3 construct": "Ricerca", "T3 sequence (P21728 whole entry)": "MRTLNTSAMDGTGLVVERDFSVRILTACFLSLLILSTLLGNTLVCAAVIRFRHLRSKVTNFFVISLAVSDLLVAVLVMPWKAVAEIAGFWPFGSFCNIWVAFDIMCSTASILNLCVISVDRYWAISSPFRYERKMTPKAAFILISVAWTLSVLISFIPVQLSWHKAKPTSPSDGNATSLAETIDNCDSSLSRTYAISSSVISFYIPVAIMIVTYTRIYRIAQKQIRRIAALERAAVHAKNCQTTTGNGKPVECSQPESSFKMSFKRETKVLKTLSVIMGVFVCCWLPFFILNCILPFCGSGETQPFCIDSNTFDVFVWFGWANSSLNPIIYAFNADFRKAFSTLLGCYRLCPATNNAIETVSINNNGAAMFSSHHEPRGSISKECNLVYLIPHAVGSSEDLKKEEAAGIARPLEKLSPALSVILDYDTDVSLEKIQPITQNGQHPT", "assay": "Radioligand displacement (Ricerca)", "assay_type": "binding"}, "[4]": {"target": "T4, Endothelin ETA (Homo sapiens, UniProt P25101)", "T4 construct": "Ricerca", "T4 sequence (P25101 21-427)": "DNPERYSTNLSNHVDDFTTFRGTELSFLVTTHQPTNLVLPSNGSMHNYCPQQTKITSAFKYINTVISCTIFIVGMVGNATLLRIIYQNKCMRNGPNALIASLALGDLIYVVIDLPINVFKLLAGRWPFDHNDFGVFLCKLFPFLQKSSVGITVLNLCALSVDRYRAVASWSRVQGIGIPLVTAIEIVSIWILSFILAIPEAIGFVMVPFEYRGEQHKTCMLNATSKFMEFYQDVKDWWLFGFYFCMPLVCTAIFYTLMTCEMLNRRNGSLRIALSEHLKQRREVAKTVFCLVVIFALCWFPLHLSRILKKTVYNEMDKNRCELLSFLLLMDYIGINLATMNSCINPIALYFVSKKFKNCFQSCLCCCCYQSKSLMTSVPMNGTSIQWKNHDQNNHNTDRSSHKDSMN", "assay": "Radioligand displacement (Ricerca)", "assay_type": "binding"}, "[5]": {"target": "T5, EGF (Homo sapiens, UniProt P00533)", "T5 construct": "Ricerca", "T5 sequence (P00533 25-1210)": "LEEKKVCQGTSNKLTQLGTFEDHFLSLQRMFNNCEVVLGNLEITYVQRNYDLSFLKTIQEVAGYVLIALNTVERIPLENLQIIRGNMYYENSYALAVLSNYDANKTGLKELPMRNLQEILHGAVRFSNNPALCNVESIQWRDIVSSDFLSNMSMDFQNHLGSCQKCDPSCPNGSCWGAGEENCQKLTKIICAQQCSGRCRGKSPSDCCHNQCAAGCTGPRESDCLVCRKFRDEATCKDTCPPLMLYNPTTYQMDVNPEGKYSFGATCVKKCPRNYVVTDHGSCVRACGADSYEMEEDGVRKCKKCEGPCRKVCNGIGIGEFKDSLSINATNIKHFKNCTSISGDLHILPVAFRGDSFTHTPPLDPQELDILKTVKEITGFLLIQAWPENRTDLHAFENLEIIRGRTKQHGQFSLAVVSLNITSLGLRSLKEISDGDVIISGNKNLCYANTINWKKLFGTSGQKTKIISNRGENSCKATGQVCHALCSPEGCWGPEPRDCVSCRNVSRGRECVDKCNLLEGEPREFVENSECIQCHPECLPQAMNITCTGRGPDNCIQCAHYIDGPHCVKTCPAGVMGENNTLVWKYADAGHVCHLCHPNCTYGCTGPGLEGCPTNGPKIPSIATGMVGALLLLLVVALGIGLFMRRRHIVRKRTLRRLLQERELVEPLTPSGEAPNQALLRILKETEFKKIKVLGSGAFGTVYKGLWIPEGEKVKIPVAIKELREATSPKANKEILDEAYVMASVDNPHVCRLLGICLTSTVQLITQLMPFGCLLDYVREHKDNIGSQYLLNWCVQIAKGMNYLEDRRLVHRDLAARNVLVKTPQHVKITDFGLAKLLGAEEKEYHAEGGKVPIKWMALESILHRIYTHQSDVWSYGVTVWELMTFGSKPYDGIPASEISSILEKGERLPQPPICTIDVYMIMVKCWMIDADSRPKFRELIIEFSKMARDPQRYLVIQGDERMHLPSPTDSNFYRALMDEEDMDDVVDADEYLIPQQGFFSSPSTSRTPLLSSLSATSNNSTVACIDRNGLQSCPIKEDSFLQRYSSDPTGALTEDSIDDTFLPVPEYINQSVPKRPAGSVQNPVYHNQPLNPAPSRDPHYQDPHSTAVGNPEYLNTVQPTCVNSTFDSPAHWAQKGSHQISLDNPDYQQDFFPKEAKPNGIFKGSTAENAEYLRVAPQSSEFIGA", "assay": "Radioligand displacement (Ricerca)", "assay_type": "binding"}, "[6]": {"system": "Imidazoline, I2", "assay": "Radioligand displacement (Ricerca)", "assay_type": "binding, rat", "details": "10 μM"}, "[7]": {"target": "T6, Melatonin MT1 (Homo sapiens, UniProt P48039)", "T6 construct": "Ricerca (contract laboratory that ran the panel)", "T6 sequence (P48039 whole entry)": "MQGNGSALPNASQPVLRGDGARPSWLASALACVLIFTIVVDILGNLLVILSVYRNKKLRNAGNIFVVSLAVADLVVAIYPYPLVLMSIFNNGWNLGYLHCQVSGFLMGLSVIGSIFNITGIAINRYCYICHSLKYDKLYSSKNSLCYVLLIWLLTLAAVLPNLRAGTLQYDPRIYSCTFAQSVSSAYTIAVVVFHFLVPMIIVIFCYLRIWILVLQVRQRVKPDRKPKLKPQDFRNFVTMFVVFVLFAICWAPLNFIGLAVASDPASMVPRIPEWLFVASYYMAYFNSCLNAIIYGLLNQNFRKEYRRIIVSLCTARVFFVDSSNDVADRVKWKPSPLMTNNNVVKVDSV", "assay": "Radioligand displacement (Ricerca)", "assay_type": "binding"}, "[8]": {"target": "T7, Serotonin 5-HT3 (Homo sapiens, UniProt P46098)", "T7 construct": "Ricerca (contract panel)", "T7 sequence (P46098 24-478)": "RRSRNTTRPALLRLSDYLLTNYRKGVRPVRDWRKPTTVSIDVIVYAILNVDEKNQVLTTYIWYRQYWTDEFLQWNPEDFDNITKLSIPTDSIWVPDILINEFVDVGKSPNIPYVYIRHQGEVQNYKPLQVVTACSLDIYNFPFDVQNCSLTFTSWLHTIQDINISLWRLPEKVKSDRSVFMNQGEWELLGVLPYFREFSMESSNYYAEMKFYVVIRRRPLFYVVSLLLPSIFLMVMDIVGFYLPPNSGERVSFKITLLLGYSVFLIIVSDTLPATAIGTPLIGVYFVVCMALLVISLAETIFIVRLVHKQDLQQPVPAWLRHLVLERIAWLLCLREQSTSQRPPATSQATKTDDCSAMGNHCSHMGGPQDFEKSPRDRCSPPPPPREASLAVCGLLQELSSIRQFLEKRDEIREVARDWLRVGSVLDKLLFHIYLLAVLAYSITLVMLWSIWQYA", "assay": "Radioligand displacement (Ricerca)", "assay_type": "binding"}, "[9]": {"target": "T8, GIRK1/2 (Homo sapiens, UniProt P48051+P48549)", "T8 sequence (P48549 1-501)": "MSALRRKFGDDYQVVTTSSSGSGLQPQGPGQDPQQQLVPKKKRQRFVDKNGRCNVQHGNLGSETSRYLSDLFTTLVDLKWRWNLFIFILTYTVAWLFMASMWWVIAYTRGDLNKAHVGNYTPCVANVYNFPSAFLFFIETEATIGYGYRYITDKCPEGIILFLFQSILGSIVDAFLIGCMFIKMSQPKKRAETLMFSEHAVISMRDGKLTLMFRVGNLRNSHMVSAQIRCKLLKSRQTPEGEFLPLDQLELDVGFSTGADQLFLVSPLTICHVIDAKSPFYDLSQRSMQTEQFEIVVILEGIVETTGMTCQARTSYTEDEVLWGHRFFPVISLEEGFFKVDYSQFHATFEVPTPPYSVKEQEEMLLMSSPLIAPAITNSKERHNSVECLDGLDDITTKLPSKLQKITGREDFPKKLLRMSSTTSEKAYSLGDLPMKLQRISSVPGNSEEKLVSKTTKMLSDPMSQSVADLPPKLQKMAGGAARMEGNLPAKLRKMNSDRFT", "T8 sequence (P48051 1-423)": "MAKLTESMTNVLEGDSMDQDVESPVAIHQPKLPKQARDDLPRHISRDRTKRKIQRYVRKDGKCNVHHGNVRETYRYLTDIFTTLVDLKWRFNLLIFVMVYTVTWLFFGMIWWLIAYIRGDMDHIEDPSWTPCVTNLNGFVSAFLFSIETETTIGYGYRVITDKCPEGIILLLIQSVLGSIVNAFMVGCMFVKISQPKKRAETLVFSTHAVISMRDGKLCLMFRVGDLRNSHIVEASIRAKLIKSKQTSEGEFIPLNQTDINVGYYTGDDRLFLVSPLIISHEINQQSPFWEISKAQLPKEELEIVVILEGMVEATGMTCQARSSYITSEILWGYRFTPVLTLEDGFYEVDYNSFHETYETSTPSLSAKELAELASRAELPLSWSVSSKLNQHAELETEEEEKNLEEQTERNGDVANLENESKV", "assay": "Whole-cell voltage-clamp, GIRK1/2-expressing HEK-293 cells", "assay_type": "cell-based", "set-up": "host or cells: HEK-293", "excerpt": "Cell Line Construction and Cell Culture. HEK-293 cells co-expressing human GIRK1/2 and rat mGlu8 were generated as previously described (Niswender et al., 2008). A HEK-293 cell line (ATCC, Manassas, Va.) expressing human GIRK1 and human GIRK2 was constructed by transfecting HEK-293 cells with GIRK1 and GIRK2 (Origene, Rockville, Md.) cloned into the pBudCE4.1 vector (Life Technologies, Carlsbad, Calif.) using FuGene 6 (Promega, Madison, Wis.) transfection reagent. Unless otherwise noted, other ion channel-expressing cells were prepared by transfecting HEK-293 cells with individual or combinations of subunits: GIRK1, pCMV6-A-BSD; GIRK2, pCMV6-A-puro; GIRK3, pCMV6-A-hygro; GIRK4, pCMV6-A-AC; Kv7.4, pIRESneo3. The Kir2.1 and hERG-expressing cell lines were made by transfecting T-REx-293 cells (Life Technologies, Carlsbad, Calif.) with Kir2.1 and Kv11.1, respectively, cloned into pcDNA5TO. Monoclonal cell lines were produced by limiting-dilution cloning of antibiotic-resistant cells and functional selection using the thallium flux assay described below. Unless otherwise noted, cells were maintained in Minimal Essential Medium, Alpha Medium (Mediatech, Manassas, Va.) supplemented with 10% fetal bovine serum (Sigma-Aldrich, Saint Louis, Mo.) and GlutaGro (Mediatech, Manassas, Va.), referred to henceforth as cell culture medium. […]\nA single-cell suspension of HEK-293 cells stably transfected with the appropriate ion channels were plated into TC-treated 35 mm polystyrene dishes at ˜15% confluence and incubated overnight in a 5% CO2 cell culture incubator at 37° C. […] Whole cell currents were recorded in 20K extracellular solution at −70 mV using a Pico 1 amplifier (Tecella, Foothill Ranch, Calif.) controlled by WINWCP 4.X (University of Strathclyde, Glasgow, Scotland, UK). […] One day after transfection, cells were plate into 35 mm polystyrene dishes, incubated and recorded as described above. […]\nVoltage-clamp data were analyzed by converting current amplitudes to current density by dividing by each cell's membrane capacitance estimated from capacitance compensation. […]"}}}
{"compound": "Cc1cc(NC(=O)Nc2ccc(F)c(F)c2)n(-c2ccccc2)n1", "note": "[VU0456810, 1-(3,4-difluorophenyl)-3-(3-methyl-1-phenyl-1H-pyrazol-5-yl)urea]", "values": [{"measurement": "inhibition at 10 µM", "setting": "[1]", "value": 6, "unit": "%"}, {"measurement": "inhibition at 10 µM", "setting": "[2]", "value": -1, "unit": "%"}, {"measurement": "inhibition at 10 µM", "setting": "[3]", "value": -5, "unit": "%"}, {"measurement": "inhibition at 10 µM", "setting": "[4]", "value": 1, "unit": "%"}, {"measurement": "inhibition at 10 µM", "setting": "[5]", "value": -2, "unit": "%"}, {"measurement": "% Inhibition", "setting": "[6]", "value": 20, "unit": "%"}, {"measurement": "inhibition at 10 µM", "setting": "[7]", "value": 11, "unit": "%"}, {"measurement": "inhibition at 10 µM", "setting": "[8]", "value": 1, "unit": "%"}, {"measurement": "time to 90% of maximal current amplitude after application", "setting": "[9]; 10 μM, local superfusion", "value": "approximately 2 seconds"}, {"measurement": "washout time", "setting": "[9]; after application was terminated", "value": "nearly a minute"}, {"measurement": "EC50", "setting": "[9]; cell line GIRK1-2, average ± SEM", "value": "584 ± 175", "unit": "nM"}]}
